Active and inactive are the calls of the source. The calls are words filed in the database; no cut-off is given here.
Key:
[1] = biological target: T1, Solute carrier family 2, facilitated glucose transporter member 4 (Rattus norvegicus) (UniProt P19357); test: Enhancement of GLUT4 translocation at plasma membrane of rat L6 cells expressing pIRAP-mOrange at 10 uM after 30 mins by fluorescence assay relative to control
T1 sequence (whole entry): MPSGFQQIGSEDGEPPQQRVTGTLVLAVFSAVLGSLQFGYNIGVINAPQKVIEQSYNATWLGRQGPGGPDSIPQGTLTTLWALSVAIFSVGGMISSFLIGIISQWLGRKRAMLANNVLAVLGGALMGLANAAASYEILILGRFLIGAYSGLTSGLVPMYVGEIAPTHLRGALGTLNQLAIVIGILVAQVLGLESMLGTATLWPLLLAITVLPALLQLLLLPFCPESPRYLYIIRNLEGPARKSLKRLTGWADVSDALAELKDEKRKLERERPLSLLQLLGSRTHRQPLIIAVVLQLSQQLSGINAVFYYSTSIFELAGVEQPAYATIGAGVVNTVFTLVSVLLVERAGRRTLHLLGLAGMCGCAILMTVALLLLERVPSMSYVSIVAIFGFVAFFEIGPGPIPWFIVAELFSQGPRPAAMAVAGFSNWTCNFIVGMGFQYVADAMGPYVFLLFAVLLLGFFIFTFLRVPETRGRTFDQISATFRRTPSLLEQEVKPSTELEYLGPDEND

[2] = biological target: T1, Solute carrier family 2, facilitated glucose transporter member 4 (Rattus norvegicus); test: Enhancement of GLUT4 translocation at plasma membrane of rat L6 cells expressing pIRAP-mOrange after 30 mins by laser-scanning confocal microscopic method
[3] = biological target: T1, Solute carrier family 2, facilitated glucose transporter member 4 (Rattus norvegicus); test: Enhancement of GLUT4 translocation at plasma membrane of rat L6 cells expressing pIRAP-mOrange at […] after 30 mins by laser-scanning confocal microscopic method relative to control

Compound	Activity [1]	fold change (FC) [1]	also measured
OC[C@H]1O[C@@H](Oc2ccc3c(c2)OC[C@H]2c4cc5c(cc4O[C@@H]32)OCO5)[C@H](O)[C@@H](O)[C@@H]1O	inactive	–	–
CC(C)=CCc1c(O)c(CC=C(C)C)c2oc(-c3ccc(O)cc3)c(O)c(=O)c2c1O	–	1.35 to 2.75	–
CC(C)=CCc1cc2c(c(CC=C(C)C)c1O)O[C@H](c1ccc(O)cc1)CC2=O	–	1.35 to 2.75	–
CC(=O)OC[C@H]1O[C@@H](Oc2ccc3c(c2)OC[C@H]2c4cc5c(cc4O[C@@H]32)OCO5)[C@H](O)[C@@H](O)[C@@H]1O	inactive	–	–
CC(C)=CCc1c(O)cc(O)c2c1OC[C@H]1c3cc4c(cc3O[C@@H]21)OCO4	–	0.79	–
O=c1c(O)c(-c2ccc(O)c(O)c2)oc2cc(O)cc(O)c12	inactive	–	–
CC(C)=CCc1c2c(cc3c1O[C@H](c1ccc(O)cc1O)CC3=O)C=CC(C)(C)O2	–	1.35 to 2.75	–
Oc1ccc2c(c1)OC[C@H]1c3cc4c(cc3O[C@@H]21)OCO4	inactive	–	–
COc1ccc2c(c1)O[C@H]1c3ccc(O)cc3OC[C@@H]21	inactive	–	–
CC(C)=CCc1cc([C@@H]2CC(=O)c3ccc(O)c(CC=C(C)C)c3O2)ccc1O	–	1.35 to 2.75	–
CC(C)=CCc1cc([C@@H]2CC(=O)c3ccc(O)c(CC=C(C)C)c3O2)cc(CC=C(C)C)c1O	–	2.75	Activity [2]: Dose-dependent effect; fold change (FC) [3]: 2.7
CC(C)=CCc1cc([C@@H]2CC(=O)c3ccc(O)c(CC=C(C)C)c3O2)cc2c1OC(C)(C)C=C2	–	1.35 to 2.75	–

— ChEMBL document CHEMBL3997838, “Chemical constituents from Sophora tonkinensis and their glucose transporter 4 translocation activities” (Bioorg Med Chem Lett, 2017)
